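Five compound concentrations were applied to cells in 96-well plates for 48 hours; endpoints were derived by simple linear interpolation of the resulting dose-response curve. GI50 is the concentration that inhibits growth by half. At the TGI there is no net growth.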
Tests used:
Assay in all cases: NCI tumour cell line growth inhibition, 48 h
[1] = tested on: ACHN renal
[2] = tested on: HCT-15 colon
[3] = tested on: K-562 leukemia
[4] = tested on: OVCAR-5 ovarian
[5] = tested on: RPMI-8226 leukemia
[6] = tested on: SF-295 CNS
[7] = tested on: SK-OV-3 ovarian
[8] = tested on: SW-620 colon
[9] = tested on: U251 CNS
[10] = tested on: MDA-MB-231 breast

With `S=c1sc2c(n1-c1ccccc1)NC=NC2S` (centres undefined) the TGI [1] was over 100 µM, the TGI [2] was over 100 µM and the TGI [3] was over 100 µM. The TGI [4] was over 100 µM, the TGI [5] was over 100 µM and the TGI [6] was over 100 µM. The TGI [7] was over 100 µM, the TGI [8] was over 100 µM and the TGI [9] was over 100 µM.

With `COc1nc(NC2OC(COC(C)=O)C(OC(C)=O)C(OC(C)=O)C2OC(C)=O)c2c(OC(C)=O)cc(=O)oc2n1` (centres undefined) the TGI [1] was 29.6 µM, the TGI [2] was over 100 µM and the TGI [3] was over 100 µM. The TGI [4] was over 100 µM, the TGI [5] was over 100 µM and the TGI [6] was over 100 µM. The TGI [7] was over 100 µM, the TGI [8] was over 100 µM and the TGI [9] was over 100 µM.

In the case of `COc1ccc(C2[C@@H](c3ccccc3)C(=O)N2c2cc(OC)c(OC)c(OC)c2)cc1F` (some centres undefined), the GI50 [1] is reported as 0.044 µM, the TGI [1] is reported as over 100 µM and the GI50 [2] is reported as 0.0336 µM. The TGI [2] was over 100 µM, the GI50 [3] was 0.0321 µM and the TGI [3] was over 100 µM. For the same molecule, the GI50 [10] was 0.0452 µM, the TGI [10] was over 100 µM and the GI50 [4] was 0.0517 µM. It also gave a TGI [4] of over 100 µM, a GI50 [5] of 0.0413 µM and a TGI [5] of 4 µM. For the same molecule, the GI50 [6] was 0.029 µM, the TGI [6] was 1.78 µM and the GI50 [7] was 0.0348 µM. For the same molecule, the TGI [7] was over 100 µM, the GI50 [8] was 0.0419 µM and the TGI [8] was over 100 µM. For the same molecule, the GI50 [9] was 0.0359 µM and the TGI [9] was over 100 µM.

In the case of `O=C(O)c1ccc2c(c1C(=O)O)C(=O)OC2(c1ccc(O)cc1)c1ccc(O)cc1`, the TGI [1] is reported as over 100 µM, the TGI [2] is reported as over 100 µM and the TGI [3] is reported as over 100 µM. The TGI [10] was over 100 µM, the TGI [4] was over 100 µM and the TGI [5] was over 100 µM. It also gave a TGI [6] of over 100 µM, a TGI [7] of over 100 µM and a TGI [8] of over 100 µM. For the same molecule, the TGI [9] was over 100 µM.

`N#C/C(=C\c1cccc(Cl)c1Cl)c1ccccc1` showed a TGI [1] of over 90.8 µM, a TGI [2] of over 77.6 µM and a TGI [3] of over 100 µM. For the same molecule, the TGI [4] was over 100 µM, the TGI [5] was over 89.1 µM and the TGI [6] was 60.4 µM. For the same molecule, the TGI [7] was over 89.9 µM, the TGI [8] was over 72.4 µM and the TGI [9] was 69.5 µM.

Work on `CC(C)(C)c1cc2c(O)c3cccc4c(=O)c5cccc6c5-c(c34)c2c(c1)c6=O` yielded a TGI [1] of over 100 µM, a TGI [2] of over 100 µM and a TGI [3] of over 100 µM. It also gave a TGI [4] of over 100 µM, a TGI [6] of over 100 µM and a TGI [7] of over 100 µM. It also gave a TGI [8] of over 100 µM and a TGI [9] of over 100 µM.

For `Cc1cccc(C)c1NC(=O)CCCC(=O)C1/C(=N/NC(=O)CC#N)CCC/C1=N\NC(=O)CC#N` (centres undefined), the TGI [1] was over 100 µM, the TGI [2] was over 100 µM and the TGI [3] was over 100 µM. The TGI [4] was over 100 µM, the TGI [5] was over 100 µM and the TGI [6] was over 100 µM. The TGI [7] was over 100 µM, the TGI [8] was over 100 µM and the TGI [9] was over 100 µM.

Work on `CCN1C(=O)N(c2ccccc2)C2NC(=S)N(/N=C/C=C/c3ccccc3OC)C21` (centres undefined) yielded a GI50 [1] of 0.134 µM, a TGI [1] of over 60.8 µM and a GI50 [2] of 0.102 µM. It also gave a TGI [2] of over 100 µM, a GI50 [3] of 0.0662 µM and a TGI [3] of over 100 µM. The GI50 [10] was 0.0921 µM, the TGI [10] was 5.13 µM and the GI50 [4] was 0.17 µM. The TGI [4] was over 86.2 µM, the GI50 [5] was 0.126 µM and the TGI [5] was 14.2 µM. For the same molecule, the GI50 [6] was 0.0749 µM, the TGI [6] was 25.7 µM and the GI50 [8] was 0.125 µM. The TGI [8] was over 100 µM, the GI50 [9] was 0.106 µM and the TGI [9] was over 43.8 µM.

Work on `O=C(/C=C/c1ccc([N+](=O)[O-])cc1)c1ccc(NCc2nc3ccccc3[nH]2)cc1` yielded a TGI [1] of 23 µM, a TGI [2] of 11.8 µM and a TGI [3] of 7.03 µM. The TGI [4] was 26.3 µM, the TGI [6] was 18.1 µM and the TGI [7] was 30.1 µM. The TGI [8] was 6.19 µM and the TGI [9] was 3.23 µM.

`C=CC[C@H](C[C@H](C[C@H](C[C@H](C[C@H](C[C@H](C[C@H](C[C@H](C[C@H](C[C@H](CCCCC)OC)OC)OC)OC)OC)OC)OC)OC)OC)OC` was tested, and the TGI [1] was over 100 µM, the TGI [3] was over 100 µM and the TGI [4] was over 100 µM. It also gave a TGI [5] of over 100 µM, a TGI [6] of over 100 µM and a TGI [7] of over 100 µM. For the same molecule, the TGI [8] was over 100 µM and the TGI [9] was over 100 µM.

`C/C(=N/Nc1ccc([N+](=O)[O-])cc1[N+](=O)[O-])C(CC(C(=O)NCc1ccccc1)/C(C)=N\Nc1ccc([N+](=O)[O-])cc1[N+](=O)[O-])C(=O)NCc1ccccc1` (centres undefined) showed a TGI [1] of 17.4 µM, a TGI [2] of 26 µM and a TGI [4] of 56.6 µM. It also gave a TGI [5] of 44.8 µM, a TGI [6] of 18.2 µM and a TGI [7] of 29.1 µM. It also gave a TGI [8] of 24.4 µM and a TGI [9] of 11.1 µM.

`C=C(C)CCOC(c1ccccc1)(c1ccccc1)c1ccccc1` showed a TGI [1] of over 100 µM, a TGI [2] of over 100 µM and a TGI [3] of over 100 µM. The TGI [4] was over 100 µM, the TGI [5] was over 100 µM and the TGI [6] was over 100 µM. For the same molecule, the TGI [7] was over 100 µM, the TGI [8] was over 100 µM and the TGI [9] was over 100 µM.

Work on `C=C1C(=O)O[C@H]2[C@H]1CC/C(COC(=O)NCc1ccc(Cn3c(=O)sn(-c4ccc(OC)cc4)c3=O)cc1)=C\CC[C@@]1(C)O[C@@H]21` yielded a GI50 [1] of 1.73 µM, a TGI [1] of 3.27 µM and a GI50 [2] of 1.68 µM. It also gave a TGI [2] of 3.36 µM, a GI50 [10] of 1.97 µM and a TGI [10] of 4.11 µM. The GI50 [4] was 2.06 µM, the TGI [4] was 4.81 µM and the GI50 [5] was 2.01 µM. For the same molecule, the TGI [5] was 4.52 µM, the GI50 [6] was 15 µM and the TGI [6] was 28.9 µM. The GI50 [7] was 14.4 µM, the TGI [7] was 27.4 µM and the GI50 [8] was 1.77 µM. For the same molecule, the TGI [8] was 3.61 µM, the GI50 [9] was 4.11 µM and the TGI [9] was 13.9 µM.

With `CCc1c(OC(C)=O)c2c(NC3OCC(OC(C)=O)C(OC(C)=O)C3OC(C)=O)nc(SC)nc2oc1=O` (centres undefined) the TGI [1] was over 100 µM, the TGI [2] was over 100 µM and the TGI [3] was over 100 µM. For the same molecule, the TGI [4] was over 100 µM, the TGI [5] was over 100 µM and the TGI [6] was over 100 µM. The TGI [7] was over 100 µM, the TGI [8] was over 100 µM and the TGI [9] was over 100 µM.

`O=c1ccc2ccccc2cc1[O-].O=c1ccc2ccccc2cc1[O-].[O]=[U+2]=[O]` gave a GI50 [1] of 14.2 µM, a TGI [1] of 33.1 µM and a GI50 [2] of 17.6 µM. It also gave a TGI [2] of over 100 µM, a GI50 [3] of 6.75 µM and a TGI [3] of over 100 µM. It also gave a GI50 [4] of 30.1 µM, a TGI [4] of over 100 µM and a GI50 [5] of 17 µM. It also gave a TGI [5] of over 100 µM, a GI50 [6] of 17.7 µM and a TGI [6] of 63.5 µM. It also gave a GI50 [7] of 30.2 µM, a TGI [7] of 71.2 µM and a GI50 [8] of 7.76 µM. The TGI [8] was 39.7 µM, the GI50 [9] was 16.5 µM and the TGI [9] was 46.5 µM.

`O=C(Nc1ccccc1-c1nn(C(=S)Nc2ccccc2)c(=S)n(C(=S)Nc2ccccc2)c1=O)C(F)(F)F` showed a TGI [1] of over 95.6 µM, a TGI [2] of over 78.3 µM and a TGI [3] of over 95.6 µM. For the same molecule, the TGI [4] was over 100 µM, the TGI [5] was 50.2 µM and the TGI [6] was over 100 µM. The TGI [7] was over 100 µM, the TGI [8] was over 64.7 µM and the TGI [9] was over 70.9 µM.

`Oc1[nH]c2ccccc2c1N=Nc1nc(-c2ccc(Br)cc2)cs1` was tested, and the TGI [1] was 49.1 µM, the TGI [2] was 68.3 µM and the TGI [10] was 62.5 µM. For the same molecule, the TGI [4] was over 100 µM, the TGI [6] was 67.7 µM and the TGI [7] was 66.3 µM. It also gave a TGI [8] of over 100 µM and a TGI [9] of 28.1 µM.

For `CCCCN(CCCC)C(=O)C(=O)C(C(=O)c1ccc(OC)cc1)c1ccc(OC)cc1` (centres undefined), the TGI [1] was over 100 µM, the TGI [2] was over 100 µM and the TGI [3] was over 100 µM. The TGI [4] was over 100 µM, the TGI [6] was over 100 µM and the TGI [7] was over 100 µM. It also gave a TGI [8] of over 100 µM and a TGI [9] of over 100 µM.

`COC(=O)CC(c1ccccc1)C1(c2ccccc2)SCCS1` (centres undefined) was tested, and the TGI [1] was over 290 µM, the TGI [2] was over 290 µM and the TGI [3] was over 290 µM. It also gave a TGI [4] of over 290 µM, a TGI [5] of over 290 µM and a TGI [6] of over 290 µM. It also gave a TGI [7] of over 290 µM, a TGI [8] of over 290 µM and a TGI [9] of over 290 µM.
